22 compounds from patent US8546608B2, “Proteasome inhibitors and methods of using the same” (Cephalon, Inc., priority 2003, dated 2013) can be followed below.

In assay [1] the target is T1, 20S Human Erythrocyte Proteasome (HEP) (Homo sapiens, UniProt P20618+P28074).
T1 construct: 20S Human Erythrocyte Proteasome (HEP), purchased from Immatics Biotechnologies Inc; purchased Immatics Biotechnologies Inc., Tübingen, Germany; host or cells: human erythrocytes (natural source)
Put plainly: Chymotrypsin-like activity of 20S Human Erythrocyte Proteasome (HEP), IC50 determination. To be noted: assay of Example C, inhibition of HEP. The format is biochemical. A digest of the protocol: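 20S proteasome at 0.2 μg/mL (about 0.6 nM catalytic sites) in 20 mM Tris with 0.04% SDS, preincubated 15 min at 37° C with inhibitor before Suc-LLVY-AMC (100 μM final). AMC fluorescence read in the linear range; triplicates, IC50 from concentration series.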

Assay [2] addresses T2, proteasome in Molt-4 cells (human leukemia) (Homo sapiens, UniProt P20618+P28074).
T2 sequence (P28074 60-263): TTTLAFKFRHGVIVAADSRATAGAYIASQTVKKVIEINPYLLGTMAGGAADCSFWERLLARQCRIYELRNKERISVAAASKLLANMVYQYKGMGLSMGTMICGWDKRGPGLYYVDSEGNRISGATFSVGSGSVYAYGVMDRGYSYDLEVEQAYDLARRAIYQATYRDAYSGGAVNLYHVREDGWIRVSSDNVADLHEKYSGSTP
T2 sequence (P20618 29-241): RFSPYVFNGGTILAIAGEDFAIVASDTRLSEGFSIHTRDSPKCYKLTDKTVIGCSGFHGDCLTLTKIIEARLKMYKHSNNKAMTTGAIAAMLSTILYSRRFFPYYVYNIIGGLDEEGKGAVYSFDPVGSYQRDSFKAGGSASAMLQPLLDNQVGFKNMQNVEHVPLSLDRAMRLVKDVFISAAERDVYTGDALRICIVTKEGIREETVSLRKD
In kind it is cell-based. The following applies: assay of Example E, inhibition of MOLT4; read-out: MOLT4 (EC50). The method in brief:
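Intact Molt-4 cells (6×10^6 cells/mL) in HEPES-buffered saline were preincubated with inhibitor 15 min at 37 °C, then given cell-permeable MeOSuc-FLF-AFC at 25 μM final.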

In the case of `CC(C)C[C@H](NC(=O)[C@H](CCCNC(=N)N[N+](=O)[O-])NC(=O)C1CCCCC1C)B(O)O` (stereo partly drawn) [E.2.20, Boronic acid, [(1R)-1-[[(2S)-5-[[imino(nitroamino)methyl]amino]-2-[(2-methylcyclohexanecarbonyl)amino]-1-oxopentyl]amino]-3-methylbutyl]], the IC50 in assay [1] is below 0.01 µM. Also, the EC50 in assay [2] was 2 to 10 µM.
The like results for `CCCC/C=C/C(=O)N[C@@H](CCCNC(=N)N[N+](=O)[O-])C(=O)N[C@@H](CC(C)C)B(O)O` [E.2.21, Boronic acid, [(1R)-1-[[(2S)-5-[[imino(nitroamino)methyl]amino]-2-[(hept-2-enoyl)amino]-1-oxopentyl]amino]-3-methylbutyl]] were, in that order, below 0.01 µM and 2 to 10 µM.
In the case of `Cc1ccc(OCC(=O)N[C@@H](CCCNC(=N)N[N+](=O)[O-])C(=O)N[C@@H](CC(C)C)B(O)O)cc1C` [E.2.22, Boronic acid, [(1R)-1-[[(2S)-5-[[imino(nitroamino)methyl]amino]-2-[[2-(3,4-dimethylphenoxy)acetyl]amino]-1-oxopentyl]amino]-3-methylbutyl]], in assay [1], the 50% inhibitory concentration (IC50) is below 0.01 µM. In addition, the EC50 in assay [2] lay in the range of 0.2 to 2 µM.
The like results for `CC(C)C[C@H](NC(=O)[C@H](CCCNC(=N)N[N+](=O)[O-])NC(=O)C1CC2CCC1C2)B(O)O` (stereo partly drawn) [E.2.25, Boronic acid, [(1R)-1-[[(2S)-5-[[imino(nitroamino)methyl]amino]-2-[(bicyclo[2.2.1]heptane-2-carbonyl)amino]-1-oxopentyl]amino]-3-methylbutyl]] were, in that order, below 0.01 µM and 2 to 10 µM.
Consider `CC(C)CCCC(=O)N[C@@H](CCCNC(=N)N[N+](=O)[O-])C(=O)N[C@@H](CC(C)C)B(O)O` [E.2.26, Boronic acid, [(1R)-1-[[(2S)-5-[[imino(nitroamino)methyl]amino]-2-[(5-methylhexanoyl)amino]-1-oxopentyl]amino]-3-methylbutyl]], for which the IC50 in assay [1] was below 0.01 µM. Besides, the EC50 in assay [2] is above 10 µM.
The like results for `Cc1nc(C)c(C(=O)N[C@@H](CCCNC(=N)N[N+](=O)[O-])C(=O)N[C@@H](CC(C)C)B(O)O)s1` [E.2.27, Boronic acid, [(1R)-1-[[(2S)-5-[[imino(nitroamino)methyl]amino]-2-[(2,4-dimethylthiazole-5-carbonyl)amino]-1-oxopentyl]amino]-3-methylbutyl]] were, in that order, below 0.01 µM and above 10 µM.
In assay [1], `CC(C)C[C@H](NC(=O)[C@H](CCCNC(=N)N[N+](=O)[O-])NC(=O)c1ccoc1)B(O)O` [E.2.28, Boronic acid, [(1R)-1-[[(2S)-5-[[imino(nitroamino)methyl]amino]-2-[(furan-3-carbonyl)amino]-1-oxopentyl]amino]-3-methylbutyl]] gave a 50% inhibitory concentration (IC50) below 0.01 µM. The EC50 in assay [2] is above 10 µM.
The like results for `CC(C)C[C@H](NC(=O)[C@H](CCCNC(=N)N[N+](=O)[O-])NC(=O)CC1CCCCCC1)B(O)O` [E.2.29, Boronic acid, [(1R)-1-[[(2S)-5-[[imino(nitroamino)methyl]amino]-2-[(2-cycloheptylacetyl)amino]-1-oxopentyl]amino]-3-methylbutyl]] were, in that order, below 0.01 µM and 2 to 10 µM.
As for `CC(C)CC(=O)N[C@@H](CCCNC(=N)N[N+](=O)[O-])C(=O)N[C@@H](CC(C)C)B(O)O` [E.2.31, Boronic acid, [(1R)-1-[[(2S)-5-[[imino(nitroamino)methyl]amino]-2-[(3-methylbutanoyl)amino]-1-oxopentyl]amino]-3-methylbutyl]], in assay [1], the 50% inhibitory concentration (IC50) was below 0.01 µM. In addition, the concentration giving a half-maximal response (EC50) in assay [2] is above 10 µM.
Compound `CC(C)C[C@H](NC(=O)[C@H](CCCNC(=N)N[N+](=O)[O-])NC(=O)CCc1ccccc1)B(O)O` [E.2.32, Boronic acid, [(1R)-1-[[(2S)-5-[[imino(nitroamino)methyl]amino]-2-[(3-phenylpropanoyl)amino]-1-oxopentyl]amino]-3-methylbutyl]] displayed an IC50 in assay [1] below 0.01 µM. The EC50 in assay [2] was above 10 µM.
`Cc1cccc(/C=C/C(=O)N[C@@H](CCCNC(=N)N[N+](=O)[O-])C(=O)N[C@@H](CC(C)C)B(O)O)c1` [E.2.33, Boronic acid, [(1R)-1-[[(2S)-5-[[imino(nitroamino)methyl]amino]-2-[[(E)-3-(3-methylphenyl)acryl]amino]-1-oxopentyl]amino]-3-methylbutyl]] registered an IC50 in assay [1] below 0.01 µM. For the same compound, the concentration for a half-maximal effect (EC50) in assay [2] fell in the range of 2 to 10 µM.
Consider `CC(C)C[C@H](NC(=O)[C@H](CCCNC(=N)N[N+](=O)[O-])NC(=O)CC12CC3CC(CC(C3)C1)C2)B(O)O` [E.2.34], for which the IC50 in assay [1] is below 0.01 µM. Moreover, the 50% effective concentration (EC50) in assay [2] was 2 to 10 µM.
The like results for `CC(C)C[C@H](NC(=O)[C@H](CCCNC(=N)N[N+](=O)[O-])NC(=O)Cc1ccccc1)B(O)O` [E.2.36, Boronic acid, [(1R)-1-[[(2S)-5-[[imino(nitroamino)methyl]amino]-2-[(2-phenylacetyl)amino]-1-oxopentyl]amino]-3-methylbutyl]] were, in that order, below 0.01 µM and above 10 µM.
As for `COc1ccc(CC(=O)N[C@@H](CCCNC(=N)N[N+](=O)[O-])C(=O)N[C@@H](CC(C)C)B(O)O)cc1` [E.2.37, Boronic acid, [(1R)-1-[[(2S)-5-[[imino(nitroamino)methyl]amino]-2-[[2-(4-methoxyphenyl)acetyl]amino]-1-oxopentyl]amino]-3-methylbutyl]], the concentration for half-maximal inhibition (IC50) in assay [1] was below 0.01 µM. Moreover, in assay [2], the concentration for a half-maximal effect (EC50) is above 10 µM.
The compound `CC(C)C[C@H](NC(=O)[C@H](CCCNC(=N)N[N+](=O)[O-])NC(=O)Cc1ccc(Br)cc1)B(O)O` [E.2.38, Boronic acid, [(1R)-1-[[(2S)-5-[[imino(nitroamino)methyl]amino]-2-[[2-(4-bromophenyl)acetyl]amino]-1-oxopentyl]amino]-3-methylbutyl]] displayed an IC50 in assay [1] below 0.01 µM. In assay [2], the concentration giving a half-maximal response (EC50) was in the range of 2 to 10 µM.
In assay [1], `Cc1ccc(F)c(C(=O)N[C@@H](CCCNC(=N)N[N+](=O)[O-])C(=O)N[C@@H](CC(C)C)B(O)O)c1` [E.2.40, Boronic acid, [(1R)-1-[[(2S)-5-[[imino(nitroamino)methyl]amino]-2-[(2-fluoro-5-methylbenzoyl)amino]-1-oxopentyl]amino]-3-methylbutyl]] had a half-maximal inhibitory concentration (IC50) below 0.01 µM. Also, the concentration giving a half-maximal response (EC50) in assay [2] lay within 2 to 10 µM.
The like results for `CC(C)C[C@H](NC(=O)[C@H](CCCNC(=N)N[N+](=O)[O-])NC(=O)CC1CC2CCC1C2)B(O)O` (stereo partly drawn) [E.2.41, Boronic acid, [(1R)-1-[[(2S)-5-[[imino(nitroamino)methyl]amino]-2-[[2-(bicyclo[2.2.1]hept-2-yl)acetyl]amino]-1-oxopentyl]amino]-3-methylbutyl]] were, in that order, below 0.01 µM and above 10 µM.
In assay [1], `CC(C)C[C@H](NC(=O)[C@H](CCCNC(=N)N[N+](=O)[O-])NC(=O)CCCOc1ccccc1)B(O)O` [E.2.42, Boronic acid, [(1R)-1-[[(2S)-5-[[imino(nitroamino)methyl]amino]-2-[(4-phenoxybutanoyl)amino]-1-oxopentyl]amino]-3-methylbutyl]] showed an IC50 below 0.01 µM. The concentration giving a half-maximal response (EC50) in assay [2] is above 10 µM.
Turning to `CCCCCCCCCCCCC(=O)N[C@@H](CCCNC(=N)N[N+](=O)[O-])C(=O)N[C@@H](CC(C)C)B(O)O` [E.2.45, Boronic acid, [(1R)-1-[[(2S)-5-[[imino(nitroamino)methyl]amino]-2-[(tridecanoyl)amino]-1-oxopentyl]amino]-3-methylbutyl]], in assay [1], the IC50 is below 0.01 µM. Further, the EC50 in assay [2] was below 0.2 µM.
For the compound `CC(C)C[C@H](NC(=O)[C@H](CCCNC(=N)N[N+](=O)[O-])NC(=O)CCCCCCCc1ccccc1)B(O)O` [E.2.46, Boronic acid, [(1R)-1-[[(2S)-5-[[imino(nitroamino)methyl]amino]-2-[(8-phenyloctanoyl)amino]-1-oxopentyl]amino]-3-methylbutyl]], the IC50 in assay [1] was below 0.01 µM. For the same compound, the half-maximal effective concentration (EC50) in assay [2] was 0.2 to 2 µM.
With `CC(C)C[C@H](NC(=O)[C@H](CCCNC(=N)N[N+](=O)[O-])NC(=O)CCC(=O)c1ccc(S(C)(=O)=O)cc1)B(O)O` [E.2.47, Boronic acid, [(1R)-1-[[(2S)-5-[[imino(nitroamino)methyl]amino]-2-[[4-(4-methanesulfonylphenyl)-4-oxobutanoyl]amino]-1-oxopentyl]amino]-3-methylbutyl]], the concentration for half-maximal inhibition (IC50) in assay [1] was below 0.01 µM. Further, the concentration giving a half-maximal response (EC50) in assay [2] was above 10 µM.
`CC(C)C[C@H](NC(=O)[C@H](CCCNC(=N)N[N+](=O)[O-])NC(=O)CCSc1ccc2ccccc2c1)B(O)O` [E.2.48, Boronic acid, [(1R)-1-[[(2S)-5-[[imino(nitroamino)methyl]amino]-2-[[3-(naphthalen-2-ylsulfanyl)-propanoyl]amino]-1-oxopentyl]amino]-3-methylbutyl]] yielded an IC50 in assay [1] below 0.01 µM. Also, the EC50 in assay [2] was in the range of 0.2 to 2 µM.
